Source: PubChem BioAssay (NCI)
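Five compound concentrations were applied to cells in 96-well plates for 48 hours; endpoints were derived by simple linear interpolation of the resulting dose-response curve. GI50 = concentration required for 50% inhibition of growth. At the TGI there is no net growth.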

Key:
Assay in all cases: inhibition of tumour cell growth, NCI panel, 48 h
[1] = test system: MDA-MB-435
[2] = test system: HOP-62 NSCLC
[3] = test system: UACC-62 melanoma
[4] = test system: IGROV1 ovarian
[5] = test system: COLO 205 colon
[6] = test system: NCI-H226 lung
[7] = test system: HCC-2998 colon
[8] = test system: CCRF-CEM leukemia
[9] = test system: NCI/ADR-RES ovarian
[10] = test system: SN12C renal
[11] = test system: SK-MEL-2 melanoma
[12] = test system: CAKI-1 renal
[13] = test system: M14 melanoma
[14] = test system: HOP-92 NSCLC
[15] = test system: HT29 colon
[16] = test system: UACC-257 melanoma
[17] = test system: HCT-116 colon
[18] = test system: 786-0 renal
[19] = test system: NCI-H460 lung
[20] = test system: NCI-H23 lung
[21] = test system: A549 NSCLC
[22] = test system: HS 578T breast
[23] = test system: UO-31 renal
[24] = test system: OVCAR-4 ovarian
[25] = test system: K-562 leukemia
[26] = test system: SK-MEL-5 melanoma
[27] = test system: PC-3 prostate
[28] = test system: SF-295 CNS
[29] = test system: DU-145 prostate
[30] = test system: SNB-75 CNS
[31] = test system: ACHN renal
[32] = test system: KM12 colon
[33] = test system: MCF7 breast
[34] = test system: SF-268 CNS
[35] = test system: MALME-3M melanoma
[36] = test system: NCI-H522 lung
[37] = test system: EKVX NSCLC
[38] = test system: U251 CNS
[39] = test system: RPMI-8226 leukemia
[40] = test system: T-47D breast
[41] = test system: SR leukemia
[42] = test system: OVCAR-5 ovarian
[43] = test system: SF-539 CNS
[44] = test system: SNB-19 CNS
[45] = test system: TK-10 renal
[46] = test system: SK-MEL-28 melanoma
[47] = test system: RXF 393 renal
[48] = test system: LOX IMVI melanoma
[49] = test system: SW-620 colon
[50] = test system: MDA-MB-231 breast
[51] = test system: BT-549 breast
[52] = test system: SK-OV-3 ovarian
[53] = test system: HL-60(TB) leukemia
[54] = test system: A498 renal
[55] = test system: MOLT-4 leukemia
[56] = test system: HCT-15 colon
[57] = test system: OVCAR-3 ovarian
[58] = test system: OVCAR-8 ovarian

CCOP(=O)(OCC)OC[C@]12CCC(C)(C)C=C1[C@H]1CC[C@@H]3[C@@]4(C)CC[C@H](OP(=O)(OCC)OCC)C(C)(C)[C@@H]4CC[C@@]3(C)[C@]1(C)CC2
GI50 [1]: 1.59 µM
TGI [1]: 2.99 µM
GI50 [2]: 1.61 µM
TGI [2]: 3.14 µM
GI50 [3]: 1.11 µM
TGI [3]: 2.49 µM
GI50 [4]: 1.72 µM
TGI [4]: 3.26 µM
GI50 [5]: 1.65 µM
TGI [5]: 3.23 µM
GI50 [6]: 1.65 µM
TGI [6]: 3.6 µM
GI50 [7]: 1.39 µM
TGI [7]: 2.92 µM
GI50 [8]: 2.3 µM
TGI [8]: 8.87 µM
GI50 [9]: 1.57 µM
TGI [9]: 3.29 µM
GI50 [10]: 1.35 µM
TGI [10]: 2.85 µM
GI50 [11]: 1.67 µM
TGI [11]: 3.12 µM
GI50 [12]: 0.97 µM
TGI [12]: 2.18 µM
GI50 [13]: 1.66 µM
TGI [13]: 3.34 µM
GI50 [14]: 1.16 µM
TGI [14]: 2.53 µM
GI50 [15]: 1.36 µM
TGI [15]: 2.78 µM
GI50 [16]: 1.56 µM
TGI [16]: 3.08 µM
GI50 [17]: 1.54 µM
TGI [17]: 3.09 µM
GI50 [18]: 1.6 µM
TGI [18]: 3.08 µM
GI50 [19]: 1.67 µM
TGI [19]: 3.21 µM
GI50 [20]: 1.19 µM
TGI [20]: 2.81 µM
GI50 [21]: 1.53 µM
TGI [21]: 3.25 µM
GI50 [22]: 1.76 µM
TGI [22]: 4.22 µM
GI50 [23]: 1.36 µM
TGI [23]: 2.68 µM
GI50 [24]: 1.91 µM
TGI [24]: 4.01 µM
GI50 [25]: 0.388 µM
TGI [25]: 3.13 µM
GI50 [26]: 1.68 µM
TGI [26]: 3.07 µM
GI50 [27]: 0.673 µM
TGI [27]: 2.26 µM
GI50 [28]: 1.41 µM
TGI [28]: 2.77 µM
GI50 [29]: 1.67 µM
TGI [29]: 3.05 µM
GI50 [30]: 1.37 µM
TGI [30]: 2.69 µM
GI50 [31]: 1.63 µM
TGI [31]: 2.98 µM
GI50 [32]: 1.56 µM
TGI [32]: 2.93 µM
GI50 [33]: 1.48 µM
TGI [33]: 3 µM
GI50 [34]: 1.55 µM
TGI [34]: 3.02 µM
GI50 [35]: 1.54 µM
TGI [35]: 2.96 µM
GI50 [36]: 1.64 µM
TGI [36]: 3.16 µM
GI50 [37]: 1.48 µM
TGI [37]: 2.91 µM
GI50 [38]: 1.58 µM
TGI [38]: 3.17 µM
GI50 [39]: 0.547 µM
TGI [39]: 3.43 µM
GI50 [40]: 1.53 µM
TGI [40]: 3.26 µM
GI50 [41]: 0.866 µM
TGI [41]: 5.56 µM
GI50 [42]: 1.48 µM
TGI [42]: 2.86 µM
GI50 [43]: 1.66 µM
TGI [43]: 3.12 µM
GI50 [44]: 1.55 µM
TGI [44]: 3.04 µM
GI50 [45]: 1.58 µM
TGI [45]: 2.98 µM
GI50 [46]: 1.54 µM
TGI [46]: 2.91 µM
GI50 [47]: 1.52 µM
TGI [47]: 3.08 µM
GI50 [48]: 1.3 µM
TGI [48]: 2.66 µM
GI50 [49]: 1.64 µM
TGI [49]: 3.14 µM
GI50 [50]: 1.41 µM
TGI [50]: 3.04 µM
GI50 [51]: 1.46 µM
TGI [51]: 2.93 µM
GI50 [52]: 1.53 µM
TGI [52]: 2.96 µM
GI50 [53]: 0.611 µM
TGI [53]: 3.02 µM
GI50 [54]: 1.53 µM
TGI [54]: 2.9 µM
GI50 [55]: 1.2 µM
TGI [55]: 3.66 µM
GI50 [56]: 1.43 µM
TGI [56]: 2.87 µM

Cc1ccc2sc3c(c2c1)OC(N)=C(C#N)C3c1cccc(F)c1 (stereo not drawn)
GI50 [1]: 0.0241 µM
TGI [1]: 0.062 µM
GI50 [2]: 0.265 µM
TGI [2]: 3.97 µM
GI50 [3]: 0.0535 µM
TGI [3]: 12.5 µM
GI50 [4]: 0.318 µM
TGI [4]: 12.7 µM
GI50 [5]: 0.276 µM
TGI [5]: 0.779 µM
GI50 [6]: 0.282 µM
TGI [6]: 2.81 µM
GI50 [7]: 0.264 µM
TGI [7]: 1.41 µM
GI50 [8]: 0.312 µM
TGI [8]: 24.7 µM
GI50 [9]: 0.0574 µM
TGI [9]: 1.76 µM
GI50 [10]: 0.411 µM
TGI [10]: 6.17 µM
GI50 [11]: 0.308 µM
TGI [11]: 18.7 µM
GI50 [12]: 0.183 µM
TGI [12]: 11.5 µM
GI50 [13]: 0.137 µM
TGI [13]: 1.9 µM
GI50 [14]: 4.32 µM
TGI [14]: 20.5 µM
GI50 [15]: 0.25 µM
TGI [15]: 0.878 µM
GI50 [16]: 0.162 µM
TGI [16]: 23.3 µM
GI50 [17]: 0.102 µM
TGI [17]: 1.95 µM
GI50 [57]: 0.134 µM
TGI [57]: 4.1 µM
GI50 [18]: 0.458 µM
TGI [18]: 6.49 µM
GI50 [19]: 0.0521 µM
TGI [19]: 1.37 µM
GI50 [20]: 0.205 µM
TGI [20]: 2.56 µM
GI50 [21]: 0.217 µM
TGI [21]: 11.6 µM
GI50 [22]: 0.194 µM
TGI [22]: 8.97 µM
GI50 [23]: 0.375 µM
TGI [23]: 11.1 µM
GI50 [24]: 1.34 µM
TGI [24]: 7.48 µM
GI50 [25]: 0.0426 µM
TGI [25]: > 40.8 µM
GI50 [26]: 0.391 µM
TGI [26]: 2.35 µM
GI50 [27]: 0.305 µM
TGI [27]: 14.8 µM
GI50 [28]: 0.0799 µM
TGI [28]: 0.77 µM
GI50 [29]: 0.541 µM
TGI [29]: > 33.2 µM
GI50 [30]: 0.158 µM
TGI [30]: 1.36 µM
GI50 [31]: 0.45 µM
TGI [31]: 10.7 µM
GI50 [32]: 0.309 µM
TGI [32]: 16.9 µM
GI50 [33]: 0.03 µM
TGI [33]: 11.7 µM
GI50 [34]: 0.822 µM
TGI [34]: 24.6 µM
GI50 [35]: 0.0992 µM
TGI [35]: 11.2 µM
GI50 [36]: 0.0228 µM
TGI [36]: 0.0946 µM
GI50 [37]: 0.573 µM
TGI [37]: 18.9 µM
GI50 [38]: 0.151 µM
TGI [38]: 1.95 µM
GI50 [39]: 0.324 µM
TGI [39]: 9.77 µM
GI50 [40]: 0.0351 µM
TGI [40]: 26.9 µM
GI50 [41]: 0.09 µM
TGI [41]: 30.8 µM
GI50 [42]: 0.37 µM
TGI [42]: 7.58 µM
GI50 [43]: 0.155 µM
TGI [43]: 0.547 µM
GI50 [44]: 0.339 µM
TGI [44]: 13 µM
GI50 [45]: 1.58 µM
TGI [45]: 13.5 µM
GI50 [46]: 0.825 µM
TGI [46]: 20.1 µM
GI50 [47]: 0.0365 µM
TGI [47]: 0.189 µM
GI50 [48]: 0.16 µM
TGI [48]: 2.45 µM
GI50 [49]: 0.111 µM
TGI [49]: 13.4 µM
GI50 [50]: 0.457 µM
TGI [50]: 3.17 µM
GI50 [51]: 0.137 µM
TGI [51]: 1.17 µM
GI50 [52]: 0.324 µM
TGI [52]: 10.7 µM
GI50 [53]: 0.235 µM
TGI [53]: 0.671 µM
GI50 [58]: 0.257 µM
TGI [58]: 1.25 µM
GI50 [54]: 3.35 µM
TGI [54]: 17.2 µM
GI50 [55]: 0.414 µM
TGI [55]: 33.6 µM
GI50 [56]: 0.0755 µM
TGI [56]: 6.4 µM
